Assay results as given in US9975846B2, “Multivalent compounds for use in the treatment and prevention of brain damage” (MEDICORTEX FINLAND OY, priority 2014, dated 2018).

What was measured:
[1] = test system: rat model of experimental closed head injury; test: Rat model of experimental closed head injury: behaviour, brain edema, lesion volume, inflammatory markers; assay type: in vivo; details: oral 6 h post-injury
Method: A rat model of experimental closed head injury disclosed by Bilgen et al. (Neurorehabil. Neural Repair, 2005, 19:219-226) with some modifications is employed for testing the effect of the present compounds on behaviour, brain edema, lesion volume, and inflammatory markers after a head trauma.
Each test compound, control compound, or vehicle is administered orally 6 h post-injury.
In vivo T2 weighted magnetic resonance imaging (MRI) is performed on the animals to depict the pathologies, including lesion size, tissue viability, and brain edema, of the resulting injuries in the corresponding neuronal tissues at 24 h and day 3.
Behavioral tests, including a seven-point neuroscore test modified from Zausinger et al. (Brain Res., 2000, 863:94-105), are used to assess motor and behavioural deficits by a blinded investigator at baseline and on days 1, 3, 7, 14, and 28 post-injury. Additionally, sensimotor recovery of forelimb and hindlimb responses to tactile and proprioceptive stimulation is evaluated by a limb-placing test essentially as described by Jolkkonen et al. in Restor. Neurol. Neurosci., 2000, 17:211-216.
After euthanization, histological evaluation of the injury in the cortex and hippocampus is performed. Additionally, inflammatory markers, astrocytic and microglial activation is evaluated by immunohistochemistry.

MPTP model = test: Modified MPTP mouse model: dopaminergic system protection and behavioral skills; assay type: in vivo, mice; details: MPTP 4 x 10 mg/kg i.p. Day 1; s.c. three times a week Day 2 to Day 21; rotarod, pole, social recognition tests
Method: In this administration scheme, mice are injected i.p. four times with a MPTP dose of 10 mg/kg, two hours apart, on Day 1. Each test compound, control and vehicle are administered s.c. three times a week from Day 2 until Day 21. The present compounds are administered either alone or in combination with a non-steroidal anti-inflammatory drug, antioxidant, and/or metal ions chelate. One week prior to the MPTP dosing, the mice are trained for a rotarod performance test for three days. The rotarod test is then repeated four times during the course of the experiment. Motor performance and coordination is also tested by a pole test. Social recognition test is conducted once on the last days of the experiment.

[2] = test system: MPTP mouse model of Parkinson's disease; test: MPTP mouse model of Parkinson's disease: dopaminergic system protection; assay type: in vivo; details: MPTP 4 x 15 mg/kg i.p.; daily i.p. for 14 days from Day 0; striatal tissue by HPLC
Method: In the model, depletion of striatal dopamine (DA) and dopaminergic neuronal death in the substantia nigra (SN) is caused by systemic administration of MPTP (1-methyl-4-phenyl-1,2,3,6-tetrahydropyridine). To be more specific, MPTP is administered twice daily, 3 hours apart, by i.p. injections on Day 0 and Day 1. Each dose is 15 mg/kg, the total dose being 60 mg/kg.
Each test compound, control or vehicle is administered by daily i.p. injections for 14 days starting from Day 0.
After euthanization on Day 14, blood samples are collected by cardiac punctures and stored at −80° C. for further analysis. Blood is removed from the brains by transcardial perfusion with saline. Posterior brain blocks containing the SN are then removed and processed for cryosectioning, while striata are dissected in toto, pooled, weighted, snap-frozen in liquid nitrogen, and stored at −80° C.
20-μm-thick coronal cryosections are analysed immunohistochemically for the expression of tyrosine hydroxylase (TH), a rate-limiting enzyme in dopamine synthesis by counting the number of TH-positive neurons bilaterally in the SN.
Striatal tissue samples are analysed for DA and its two metabolites, 3,4-dihydroxyphenylacetic acid (DOPAC) and homovanillic acid (HVA), levels by HPLC.

[3] = test system: mouse model of experimental closed head injury; test: Mouse model of experimental closed head injury: cognitive rehabilitation after traumatic brain injury; assay type: in vivo; details: closed head injury by weight-drop; s.c. from day 8 onwards, three times a week; behavioral tests at baseline, day 7, day 30
Method: A mouse model of experimental closed head injury disclosed by Yatsiv et al. in FASEB J. 2005, 19:1701-1703 is employed for testing the efficacy of the present compounds to improve functional recovery after a head trauma caused by a weight-drop onto an exposed skull.
Severity of the injury is assessed according to the Neurological Severity Score disclosed by Beni-Adani et al. (J. Pharmacol. Exp. Ther. 2001, 296:57-63) on the basis of ten individual tasks reflecting motor function, alertness, and behaviour.
Each test compound, control compound, or vehicle is administered subcutaneously from day 8 onwards, three times a week.
Behavioral tests, including open field (OF), elevated plus maze (EMP), and social recognition tests are carried out at baseline, on day 7, and day 30.
After euthanization, plasma levels of cytokines and TBI-specific biomarkers, such as S100B, are determined and the brains are evaluated histologically.

[4] = T2 weighted MRI at 24 h and day 3

## CCCCC/C=C\C/C=C\CCCCCCCC(=O)Nc1ccc(OC(=O)c2cccc(O)c2O)c(OCCOc2ccccc2OC(=O)c2cccc(O)c2O)c1 [TBI-446, 2-(2-(2-((2,3-dihydroxybenzoyl)oxy)-5-((9Z,12Z)-octadeca-9,12-dienamido)phenoxy)ethoxy)phenyl 2,3-dihydroxybenzoate]
[1]; [4]
  brain edema after closed head injury: decreased
  lesion volume after closed head injury: decreased
[1]; immunohistochemistry after euthanization
  levels of inflammatory markers: decreased
MPTP model
  behavioural recovery: behavioural recovery
[2]
  protection of the dopaminergic system from reduction of striatal DA levels caused by MPTP: protect the dopaminergic system from the reduction of the DA levels
[3]
  cognitive rehabilitation of the mice: improved cognitive rehabilitation
